Results reported in patent US11446398B2, “Regulated biocircuit systems” (Obsidian Therapeutics, Inc., priority 2016, dated 2022).

B1: OT-RLuc-004: ecDHFR (R12Y, Y100I); linker (SG); Renilla Luc; SEQ ID NO 213375 (protein)
chain: MISLIAALAVDYVIGMENAMPWNLPADLAWFKRNTLNKPVIMGRHTWESIGRPLPGRKNIILSSQPGTDDRVTWVKSVDEAIAACGDVPEIMVIGGGRVIEQFLPKAQKLYLTHIDAEVEGDTHFPDYEPDDWESVFSEFHDADAQNSHSYCFEILERRSGTSKVYDPEQRKRMITGPQWWARCKQMNVLDSFINYYDSEKHAENAVIFLHGNAASSYLWRHVVPHIEPVARCIIPDLIGMGKSGKSGNGSYRLLDHYKYLTAWFELLNLPKKIIFVGHDWGACLAFHYSYEHQDKIKAIVHAESVVDVIESWDEWPDIEEDIALIKSEEGEKMVLENNFFVETMLPSKIMRKLEPEEFAAYLEPFKEKGEVRRPTLSWPREIPLVKGGKPDVVQIVRNYNAYLRASDDLPKMFIESDPGFFSNAIVEGAKKFPNTEFVKVKGLHFSQEDAPDEMGKYIKSFVERVLKNEQ
B2: OT-RLuc-005: Renilla Luc; linker (SG); FKBP (E31G, F36V, R71G, K105E); SEQ ID NO 213376 (protein)
chain: MTSKVYDPEQRKRMITGPQWWARCKQMNVLDSFINYYDSEKHAENAVIFLHGNAASSYLWRHVVPHIEPVARCIIPDLIGMGKSGKSGNGSYRLLDHYKYLTAWFELLNLPKKIIFVGHDWGACLAFHYSYEHQDKIKAIVHAESVVDVIESWDEWPDIEEDIALIKSEEGEKMVLENNFFVETMLPSKIMRKLEPEEFAAYLEPFKEKGEVRRPTLSWPREIPLVKGGKPDVVQIVRNYNAYLRASDDLPKMFIESDPGFFSNAIVEGAKKFPNTEFVKVKGLHFSQEDAPDEMGKYIKSFVERVLKNEQSGGVQVETISPGDGRTFPKRGQTCVVHYTGMLGDGKKVDSSRDRNKPFKFMLGKQEVIRGWEEGVAQMSVGQGAKLTISPDYAYGATGHPGIIPPHATLVFDVELLELE
B3: OT-RLuc-006: Renilla Luc; linker (SG); ecDHFR (R12Y, Y100I); SEQ ID NO 213377 (protein)
chain: MTSKVYDPEQRKRMITGPQWWARCKQMNVLDSFINYYDSEKHAENAVIFLHGNAASSYLWRHVVPHIEPVARCIIPDLIGMGKSGKSGNGSYRLLDHYKYLTAWFELLNLPKKIIFVGHDWGACLAFHYSYEHQDKIKAIVHAESVVDVIESWDEWPDIEEDIALIKSEEGEKMVLENNFFVETMLPSKIMRKLEPEEFAAYLEPFKEKGEVRRPTLSWPREIPLVKGGKPDVVQIVRNYNAYLRASDDLPKMFIESDPGFFSNAIVEGAKKFPNTEFVKVKGLHFSQEDAPDEMGKYIKSFVERVLKNEQSGISLIAALAVDYVIGMENAMPWNLPADLAWFKRNTLNKPVIMGRHTWESIGRPLPGRKNIILSSQPGTDDRVTWVKSVDEAIAACGDVPEIMVIGGGRVIEQFLPKAQKLYLTHIDAEVEGDTHFPDYEPDDWESVFSEFHDADAQNSHSYCFEILERR
B4: OT-RLuc-001: Renilla Luc (constitutive); SEQ ID NO 213372 (protein)
chain: MTSKVYDPEQRKRMITGPQWWARCKQMNVLDSFINYYDSEKHAENAVIFLHGNAASSYLWRHVVPHIEPVARCIIPDLIGMGKSGKSGNGSYRLLDHYKYLTAWFELLNLPKKIIFVGHDWGACLAFHYSYEHQDKIKAIVHAESVVDVIESWDEWPDIEEDIALIKSEEGEKMVLENNFFVETMLPSKIMRKLEPEEFAAYLEPFKEKGEVRRPTLSWPREIPLVKGGKPDVVQIVRNYNAYLRASDDLPKMFIESDPGFFSNAIVEGAKKFPNTEFVKVKGLHFSQEDAPDEMGKYIKSFVERVLKNEQ

What was measured:
HCT-116 cells [1] = test: Luciferase expression by western blotting; format: cell-based; conditions: HCT-116 stably transduced; 1 μM Shield-1 or 10 μM Trimethoprim or vehicle, 24 hours; FIG. 22A
Description: DD regulated luciferase can be used to track cells in vivo e.g. T cells. Firefly luciferase or Renilla luciferase may be utilized as the payload. HCT-116 cells were stably transduced with the constitutive (OT-RLuc-001) or DD regulated constructs (OT-RLuc-002, OT-RLuc-003, OT-RLuc-004, OT-RLuc-005 and OT-RLuc-006). Cells were treated with 1 μM Shield-1, or 10 μM Trimethoprim or vehicle control for 24 hours and luciferase expression and activity was measured. Luciferase expression was measured via western blotting using Anti-Renilla luciferase and anti-Firefly luciferase antibodies (Abcam, Cambridge, UK). Blots were also probed with anti-GAPDH antibody to ensure even protein loading in all samples.

HEK-Blue sensor cells = test: HEK-Blue sensor cell assay for functional IL12 (Quanti-Blue); format: cell-based; conditions: HEK 293T transfected with 200 ng plasmid, 10 μM Shield-1 24 hours; media on HEK Blue sensor cells; FIG. 21A
Description: HEK-Blue sensor cells (InvivoGen, San Diego, Calif.) were utilized to evaluate whether DD regulated IL12 is capable of regulating signaling downstream of IL12. In these cells, the IL12 receptor, STAT4 and downstream transcriptional elements are tied to a reporter gene such that IL12 signaling can be monitored. To evaluate production of functional IL12, one million HEK 293T were transfected with 200 ng of OT-IL-12-003 plasmid using Lipofectamine 2000 (Thermo Fisher Scientific, Waltham, Mass.). 48 hours after transfection, cells were treated with growth media containing 10 μM Shield-1, incubated for another 24 hours, following which, media was collected. […] After overnight incubation, 20 μl media was removed from each well and incubated with 180 μl Quanti-Blue reagent (InvivoGen, San Diego, Calif.) for 30 minutes at 37° C. Absorption was measured at 620 nm using a spectrophotometer. […] Functional IL12 concentrations were determined by comparing the optical density of each sample with IL12 standard curve.
The dependence of functional IL12 production on the dose of Shield-1 used was also evaluated. […] Absorption was measured at 620 nm using a spectrophotometer. […] Functional IL12 concentrations were determined by comparing the optical density of each sample with IL12 standard curve.

HCT116 cells = test: IL2 ELISA, dependence of DD-IL2 levels on Shield-1 dose; format: cell-based; conditions: 96-well plate, varying concentrations of Shield-1, DD-IL2 construct, read-out: ECK of Shield-1 (IL2 levels by IL2 ELISA)
Text: FKBP (L106P) and ecDHFR (R12Y, Y100I) are well-characterized destabilizing domains which can confer instability to fusion partners (e.g., a POI). The instability is reversed by a synthetic ligand named Shield-1 that binds to FKBP; TMP that binds to DHFR. An IL2 polypeptide was linked to either FKBP (L106P) or ecDHFR (R12Y, Y100I). IL2 constructs were cloned into pLVX-IRES-Puro lentiviral vectors. An IL2 signal sequence was inserted at the N terminus of the construct.
To evaluate dependence of IL2 levels on Shield-1 dose, HCT116 cells were plated onto a 96-well plate and treated with varying concentrations of Shield-1. Media was then collected from cells and IL2 levels were quantified using IL2 ELISA (FIG. 20). IL2 increased with increase in Shield-1 concentration and plateaued at higher Shield-1 dose levels. The ECK of Shield-1 was determined to be 50 nM

HEK293T cells = test: IL12-p40 ELISA, Shield-1 dose and cell number dependent IL12 induction; format: cell-based, human; conditions: OT-IL12-004 transduced HEK293T cells, 24 hours
Description: Following overnight incubation, cells were treated with growth medium containing 0 to 10 μM Shield-1 for 24 hours. Media was then collected, diluted 400 fold and FKBP-IL12 levels were measured using IL12-p40 ELISA.

HCT-116 cells [2] = test: Luciferase activity, luminescence reading; format: cell-based; conditions: 1 μM Shield-1 or 10 μM Trimethoprim or vehicle, 24 hours; coelentrazine or luciferin substrate; FIG. 22B
Description: Ligand dependent activity of Renilla and firefly luciferase constructs was also measured in using coelentrazine and luciferin substrates respectively. Cells were treated with 1 μM Shield-1, or 10 μM Trimethoprim or vehicle control for 24 hours, lysed with assay lysis buffer and incubated with the luciferase substrate. Luciferase activity was measured as luminescence reading using a luminometer and the values were compared to control comprising of lysis buffer and substrate.

Molecule | Luciferase expression, ligand dependent stabilization (western blotting) (HCT-116 cells [1]) | further results
OT-RLuc-003: FKBP (F36V, 106P); linker (SG); Renilla Luc; SEQ ID NO 213374 | strong Shield-1 dependent stabilization | –
OT-FLuc-002: FKBP (F36V, 106P); linker (EF); Fluc; SEQ ID NO 213373 | modest stabilization | –
OT-IL12-003: p40 signal sequence; FKBP (F36V, L106P); furin (SARNRQKRS); p40; linker ((G4S)3); p35; SEQ ID NO 213301 | – | Media dilution at which measurable levels of functional IL12 were reached (HEK-Blue sensor cells): 640 fold
CC[C@H](C(=O)N1CCCC[C@H]1C(=O)O[C@H](CCc1ccc(OC)c(OC)c1)c1cccc(OCCN2CCOCC2)c1)c1cc(OC)c(OC)c(OC)c1 [Shield-1] | – | EC50 (HCT116 cells): 50 nM; Shield-1 dose up to which IL12 induction increased, then plateaued (HEK293T cells): 1 µM
B1 | modest stabilization | –
B2 | modest stabilization | –
B3 | modest stabilization | –
B4 | expression of Renilla luciferase both in the presence and absence of ligand | Luciferase activity (luminescence reading) (HCT-116 cells [2]): high luciferase activity both in the presence and absence of ligand
